US8357717B2, “Spiro group-containing amide compounds having bradykinin 1 receptor (B1R) activity” (Gruenenthal GmbH, priority 2009, dated 2013)

Key:
[1] = target: T1, B1R receptor of the rat (rB1R) (Rattus norvegicus, UniProt P97583); assay: FLIPR Ca2+ functional study on bradykinin receptor 1, rB1R cells (CHO K1); type: cell-based; conditions: 10 μM test substance; CHO K1 cells with rat B1R; agonist Des-Arg9-bradykinin at EC80; read-out: B1R antagonism, rat [10 μM] % inhibition
T1 construct: expressed in transfected cells; host or cells: CHO K1 cells, stably transfected
T1 sequence (P97583 1-337): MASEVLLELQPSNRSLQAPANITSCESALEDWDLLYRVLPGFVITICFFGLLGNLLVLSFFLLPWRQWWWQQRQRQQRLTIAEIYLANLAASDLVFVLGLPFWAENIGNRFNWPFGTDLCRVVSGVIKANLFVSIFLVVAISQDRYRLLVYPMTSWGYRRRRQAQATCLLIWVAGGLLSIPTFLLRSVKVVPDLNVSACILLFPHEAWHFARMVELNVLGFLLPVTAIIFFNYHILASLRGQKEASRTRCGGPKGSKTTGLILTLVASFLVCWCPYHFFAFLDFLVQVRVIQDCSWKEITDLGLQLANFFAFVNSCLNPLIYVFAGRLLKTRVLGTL
Description: (§1) The agonistic or antagonistic activity of substances can be quantified on the bradykinin receptor 1 (B1R) of the species human and rat using ectopically expressing cell lines (CHO K1 cells) and with the aid of a Ca^2+-sensitive dye (Fluo-4) using a fluorescent imaging plate reader (FLIPR). The indication in % activation is based on the Ca^2+ signal after addition of Lys-Des-Arg^9-bradykinin (0.5 nM) or Des-Arg^9-bradykinin (100 nM). Antagonists lead to suppression of the Ca^2+ influx after the addition of the agonist. % Inhibition compared with the maximum achievable inhibition is indicated.
(§2) The agonistic or antagonistic activity of substances can be determined on the bradykinin receptor 1 (B1R) of the species human and rat using the following assay. According to this assay, the Ca^2+ influx through the channel is quantified with the aid of a Ca^2+-sensitive dye (Fluo-4 type, Molecular Probes Europe BV, Leiden, Netherlands) using a Fluorescent Imaging Plate Reader (FLIPR, Molecular Devices, Sunnyvale, USA).
(§3) Chinese hamster ovary cells (CHO K1 cells) which have been stably transfected with the human B1R gene (hB1R cells) or with the B1R gene of the rat (rB1R cells) are used. For functional studies, the cells are plated out on black 96-well plates having a clear base (BD Biosciences, Heidelberg, Germany or Greiner, Frickenhausen, Germany) in a density of 20,000-35,000 cells/well. The cells are left overnight at 37° C. and with 5% CO2 in culture medium (hB1R cells: Nutrient Mixture Ham's F12, Gibco Invitrogen GmbH, Karlsruhe, Germany or DMEM, Sigma-Aldrich, Taufkirchen, Germany; rB1R cells: D-MEM/F12, Gibco Invitrogen GmbH, Karlsruhe, Germany), with 10 vol. % FBS (fetal bovine serum, Gibco Invitrogen GmbH, Karlsruhe, Germany or PAN Biotech GmbH, Aidenbach, Germany). On the following day, the cells are loaded for 60 minutes at 37° C. with 2.13 μM Fluo-4 (Molecular Probes Europe BV, Leiden, Netherlands) in HBSS buffer (Hank's buffered saline solution, Gibco Invitrogen GmbH, Karlsruhe, Germany) […] (Sigma-Aldrich, Taufkirchen, Germany) and 10 mM HEPES (Sigma-Aldrich, Taufkirchen, Germany). The plates are then washed twice with HBSS buffer, and HBSS buffer additionally containing 0.1% BSA (bovine serum albumin; Sigma-Aldrich, Taufkirchen, Germany), 5.6 mM glucose and 0.05% gelatin (Merck KGaA, Darmstadt, Germany) is added to the plates. After incubation for a further 20 minutes at room temperature, the plates are inserted into the FLIPR for Ca^2+ measurement. Alternatively, washing is carried out with buffer A (15 mM HEPES, 80 mM NaCl, 5 mM KCl, 1.2 mM CaCl2, 0.7 mM MgSO4, 2 g/l glucose, 2.5 mM probenecid) followed by loading with buffer A with added 2.5 μM Fluo-4 and 0.025% Pluronic F127 (Sigma-Aldrich, Taufkirchen, Germany). The cells are then washed twice with buffer A and incubated for 30 minutes at room temperature with buffer A additionally containing 0.05% BSA and 0.05% gelatin and are then inserted into the FLIPR for Ca^2+ measurement. The Ca^2+-dependent fluorescence is measured before and after the addition of substances (λex=488 nm, λem=540 nm). Quantification is carried out by measuring the highest fluorescence intensity (FC, fluorescence counts) over time.
(§4) The FLIPR protocol consists of two substance additions. Test substances (10 μM) are first pipetted onto the cells and the Ca^2+ influx is compared with the control (hB1R: Lys-Des-Arg^9-bradykinin >=50 nM; rB1R: Des-Arg^9-bradykinin 10 μM). This gives the activation in %, based on the Ca^2+ signal after addition of Lys-Des-Arg^9-bradykinin (>=50 nM) or Des-Arg^9-bradykinin (10 μM). After 10-20 minutes' incubation, Lys-Des-Arg^9-bradykinin (hB1R) or Des-Arg^9-bradykinin (rB1R) is applied in the concentration of the EC80, and the influx of Ca^2+ is likewise determined. Antagonists lead to suppression of the Ca^2+ influx. The % inhibition compared with the maximum achievable inhibition is calculated. […]

[2] = target: T2, human B1R receptor (hB1R) (Homo sapiens, UniProt P46663); assay: FLIPR Ca2+ functional study on bradykinin receptor 1, hB1R cells (CHO K1); type: cell-based; conditions: CHO-K1, 10 μM test substance; CHO K1 cells with human B1R; agonist Lys-Des-Arg9-bradykinin at EC80; read-out: B1R antagonism, human [10 μM] % inhibition
T2 construct: expressed in transfected cells; host or cells: CHO K1 cells, stably transfected
T2 sequence (P46663 1-353): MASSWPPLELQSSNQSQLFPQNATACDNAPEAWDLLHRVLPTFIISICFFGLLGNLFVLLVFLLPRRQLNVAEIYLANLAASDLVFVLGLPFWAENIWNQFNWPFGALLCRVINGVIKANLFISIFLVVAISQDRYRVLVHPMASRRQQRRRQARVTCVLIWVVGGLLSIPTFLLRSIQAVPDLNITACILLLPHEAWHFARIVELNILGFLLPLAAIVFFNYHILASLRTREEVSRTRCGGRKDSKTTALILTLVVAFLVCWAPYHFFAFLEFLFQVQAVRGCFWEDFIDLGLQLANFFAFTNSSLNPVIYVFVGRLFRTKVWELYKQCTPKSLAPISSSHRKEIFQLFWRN
Description: as §1, §2, §3, §4

| inhibition at 10 µM [1] [%] | inhibition at 10 µM [2] [%] | Compound |
| --- | --- | --- |
| 80 | 97 | COc1cc(C)c(S(=O)(=O)N2CCCc3ccc(CC(=O)N4CCC5(CC4)CCN(C4CCC4)C5)cc32)c(C)c1 [Compound G-10, 1-(2-Cyclobutyl-2,8-diazaspiro[4.5]decan-8-yl)-2-(1-(4-methoxy-2,6-dimethylphenylsulfonyl)-1,2,3,4-tetrahydroquinolin-7-yl)ethanone] |
| 99 | 99 | COc1cc(C)c(S(=O)(=O)N2CCCc3ccc(CC(=O)N4CCC5(CCN(c6ccncc6)CC5)C4)cc32)c(C)c1 [Compound G-11, 2-(1-(4-Methoxy-2,6-dimethylphenylsulfonyl)-1,2,3,4-tetrahydroquinolin-7-yl)-1-(8-(pyridin-4-yl)-2,8-diazaspiro[4.5]decan-2-yl)ethanone] |
| 102 | 100 | COc1cc(C)c(S(=O)(=O)N2CCCc3ccc(CC(=O)N4CCC5(CCN(c6ccncc6)C5)C4)cc32)c(C)c1 (stereo not drawn) [Compound G-12, 2-(1-(4-Methoxy-2,6-dimethylphenylsulfonyl)-1,2,3,4-tetrahydroquinolin-7-yl)-1-(7-(pyridin-4-yl)-2,7-diazaspiro[4.4]nonan-2-yl)ethanone] |
| 94 | 100 | O=C(c1ccccc1Cl)N1CCc2onc(C(=O)N3CCC4(CC3)CCN(c3ccncc3)CC4)c2C1 [Compound G-13, (5-(2-Chlorobenzoyl)-4,5,6,7-tetrahydroisoxazolo[4,5-c]pyridin-3-yl)(9-(pyridin-4-yl)-3,9-diazaspiro[5.5]undecan-3-yl)methanone] |
| 97 | 97 | COc1cc(C)c(S(=O)(=O)N2CCc3sc(C(=O)N4CCC5(CC4)CCN(c4ccncc4)CC5)cc3C2)c(C)c1 [Compound G-14, (5-(4-Methoxy-2,6-dimethylphenylsulfonyl)-4,5,6,7-tetrahydrothieno[3,2-c]pyridin-2-yl)(9-(pyridin-4-yl)-3,9-diazaspiro[5.5]undecan-3-yl)methanone] |
| 81 | 66 | O=C(c1cc2c(s1)CCN(C(=O)c1ccccc1Cl)C2)N1CCC2(CC1)CCN(c1ccncc1)CC2 [Compound G-15, (5-(2-Chlorobenzoyl)-4,5,6,7-tetrahydrothieno[3,2-c]pyridin-2-yl)(9-(pyridin-4-yl)-3,9-diazaspiro[5.5]undecan-3-yl)methanone] |
| 100 | 98 | O=C(Cc1ccc2c(c1)N(S(=O)(=O)c1ccccc1C(F)(F)F)CCC2)N1CCC2(CC1)CCN(c1ccncc1)CC2 [Compound G-16, 1-(9-(Pyridin-4-yl)-3,9-diazaspiro[5.5]undecan-3-yl)-2-(1-(2-(trifluoromethyl)phenylsulfonyl)-1,2,3,4-tetrahydroquinolin-7-yl)ethanone] |
| 89 | 97 | O=C(Cc1ccc2c(c1)N(S(=O)(=O)c1cccc3ccccc13)CCC2)N1CCC2(CC1)CCN(c1ccncc1)CC2 [Compound G-17, 2-(1-(Naphthalin-1-ylsulfonyl)-1,2,3,4-tetrahydroquinolin-7-yl)-1-(9-(pyridin-4-yl)-3,9-diazaspiro[5.5]undecan-3-yl)ethanone] |
| 98 | 97 | Cc1cccc(Cl)c1S(=O)(=O)N1CCCc2ccc(CC(=O)N3CCC4(CC3)CCN(c3ccncc3)CC4)cc21 [Compound G-18, 2-(1-(2-Chloro-6-methylphenylsulfonyl)-1,2,3,4-tetrahydroquinolin-7-yl)-1-(9-(pyridin-4-yl)-3,9-diazaspiro[5.5]undecan-3-yl)ethanone] |
| 100 | 100 | COc1cc(C)c(S(=O)(=O)N2CCOc3ccc(CC(=O)N4CCC5(CC4)CCN(c4ccncc4)CC5)cc32)c(C)c1 [Compound G-19, 2-(4-(4-Methoxy-2,6-dimethylphenylsulfonyl)-3,4-dihydro-2H-benzo[b][1,4]oxazin-6-yl)-1-(9-(pyridin-4-yl)-3,9-diazaspiro[5.5]undecan-3-yl)ethanone] |
| 102 | 100 | COc1cc(C)c(S(=O)(=O)N2CCc3ccc(CC(=O)N4CCC5(CC4)CCN(c4ccncc4)CC5)cc32)c(C)c1 [Compound G-20, 2-(1-(4-Methoxy-2,6-dimethylphenylsulfonyl)indolin-6-yl)-1-(9-(pyridin-4-yl)-3,9-diazaspiro[5.5]undecan-3-yl)ethanone] |
| 101 | 95 | O=C(c1ccc2c(c1)N(C(=O)c1ccccc1Cl)CCC2)N1CCC2(CC1)CCN(c1ccncc1)CC2 [Compound G-21, (1-(2-Chlorobenzoyl)-1,2,3,4-tetrahydroquinolin-7-yl)(9-(pyridin-4-yl)-3,9-diazaspiro[5.5]undecan-3-yl)methanone] |
| 100 | 99 | COc1cc(C)c(S(=O)(=O)N2CCCc3ccc(C(=O)N4CCC5(CC4)CCN(c4ccncc4)CC5)cc32)c(C)c1 [Compound G-24, (1-(4-Methoxy-2,6-dimethylphenylsulfonyl)-1,2,3,4-tetrahydroquinolin-7-yl)(9-(pyridin-4-yl)-3,9-diazaspiro[5.5]undecan-3-yl)methanone] |
| 98 | 100 | COc1cc(C)c(S(=O)(=O)N2CCCc3ccc(CC(=O)N4CCC5(CC4)CCN(c4ccncc4)CC5)cc32)c(C)c1 [Compound G-25, 2-(1-(4-Methoxy-2,6-dimethylphenylsulfonyl)-1,2,3,4-tetrahydroquinolin-7-yl)-1-(9-(pyridin-4-yl)-3,9-diazaspiro[5.5]undecan-3-yl)ethanone] |
| 95 | 99 | COc1cc(C)c(S(=O)(=O)N2CCc3onc(C(=O)N4CCC5(CC4)CCN(c4ccncc4)CC5)c3C2)c(C)c1 [Compound G-26, (5-(4-Methoxy-2,6-dimethylphenylsulfonyl)-4,5,6,7-tetrahydroisoxazolo[4,5-c]pyridin-3-yl)(9-(pyridin-4-yl)-3,9-diazaspiro[5.5]undecan-3-yl)methanone] |
